# Like-named read-outs stand apart in the source and are kept apart here.
# Columns and labels:
# Wee1 (h) = Wee1 (h) (Homo sapiens, UniProt P30291); assay: Wee1 kinase (h) detection method, [γ-33P]-ATP filter assay; format: biochemical
# LoVo cells = assay: MTT based cell viability assay on LoVo cells; details: Homo sapiens, LoVo, 72 h, 3 d, read-out: IC50, growth inhibition of LoVo cells
# Outline: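 Inhibition of LoVo proliferation was derived as IC50 from a sigmoidal dose-response fit of cell survival. Readout was MTT (0.5 mg/mL, 4 h) with absorbance at 552/630/690 nm, after 3-day treatment at 37 °C. Eight-point series from 10 μM to 0.01 μM, DMSO control, 1% DMSO final.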
# NCI-H1299 cells = assay: MTT based cell viability assay on NCI-H1299 cells; details: Homo sapiens, read-out: IC50, growth inhibition of NCI-H1299 cells
# Outline: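 NCI-H1299 cells (1000/well, settled overnight) were exposed for 3 d at 37 °C, 5% CO2, to an eight-point series of 10 μM to 0.01 μM plus DMSO blank, as prepared in DMSO (final DMSO 1‰). MTT (0.5 mg/mL, 4 h) was read at 552/630/690 nm. IC50 came from sigmoidal dose-response fits of survival.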
# Wee1 (h), sequence (P30291 whole entry): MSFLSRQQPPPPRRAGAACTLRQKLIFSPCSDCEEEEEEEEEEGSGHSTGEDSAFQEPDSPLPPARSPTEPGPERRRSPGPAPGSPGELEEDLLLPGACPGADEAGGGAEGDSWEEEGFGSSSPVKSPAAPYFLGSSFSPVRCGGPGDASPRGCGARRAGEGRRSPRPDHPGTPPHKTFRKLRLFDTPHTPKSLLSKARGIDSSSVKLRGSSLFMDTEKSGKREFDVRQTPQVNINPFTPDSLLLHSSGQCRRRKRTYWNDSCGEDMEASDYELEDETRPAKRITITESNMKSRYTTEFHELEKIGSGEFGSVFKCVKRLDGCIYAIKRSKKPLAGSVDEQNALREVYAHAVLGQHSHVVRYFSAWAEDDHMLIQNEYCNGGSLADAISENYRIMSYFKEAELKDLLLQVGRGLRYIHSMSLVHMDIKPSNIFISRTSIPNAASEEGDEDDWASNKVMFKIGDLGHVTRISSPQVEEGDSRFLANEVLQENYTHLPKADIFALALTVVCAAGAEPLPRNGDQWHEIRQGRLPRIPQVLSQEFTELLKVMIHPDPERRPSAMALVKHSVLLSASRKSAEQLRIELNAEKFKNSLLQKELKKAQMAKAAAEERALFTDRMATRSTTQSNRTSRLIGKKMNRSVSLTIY
Inh. (%) of Wee1 kinase enzyme activity (Wee1 (h); C 1 μm compound) [%],IC50 (LoVo cells) [µM],IC50 (NCI-H1299 cells; NCI-H1299 cells) [µM],Inh. (%) of Wee1 kinase enzyme activity (Wee1 (h); C 0.01 μm compound) [%],Inh. (%) of Wee1 kinase enzyme activity (Wee1 (h); C 0.1 μm compound) [%],"IC50 (NCI-H1299 cells; NCI-H1299, NCI-H1299 cells) [µM]",SMILES
7,> 100,> 10,,,,"O=C1c2cnc(Nc3ccc(-n4ccnc4)cc3)nc2N2CCN=C2N1c1c(F)cccc1Cl [Example 102, 6-(2-Chloro-6-fluorophenyl)-2-((4-(1H-imidazol-1-yl)phenyl)amino)-8,9-dihydroimidazo[1,2-a]pyrimido[5,4-e]pyrimidin-5(6H)-one]"
92,0.678,1.05,30,70,,"CN1CCCN(c2ccc(Nc3ncc4c(n3)N3CCN=C3N(c3c(F)cccc3Cl)C4=O)cc2)CC1 [Example 103, 6-(2-Chloro-6-fluorophenyl)-2-((4-(4-methyl-1,4-diazepan-1-yl)phenyl)amino)-8,9-dihydroimidazo[1,2-a]pyrimido[5,4-e]pyrimidin-5(6H)-one]"
93,0.46,1.05,,,,"CN1CCN(Cc2ccc(Nc3ncc4c(n3)N3CCN=C3N(c3c(F)cccc3Cl)C4=O)cc2)CC1 [Example 104, 6-(2-Chloro-6-fluorophenyl)-2-((4-((4-methylpiperazin-1-yl)methyl)phenyl)amino)-8,9-dihydroimidazo[1,2-a]pyrimido[5,4-e]pyrimidin-5(6H)-one]"
97,0.373,0.911,40,85,,"CN(C)CCOc1ccc(Nc2ncc3c(n2)N2CCN=C2N(c2c(F)cccc2Cl)C3=O)cc1 [Example 105, 6-(2-Chloro-6-fluorophenyl)-2-((4-(2-(dimethylamino)ethoxy)phenyl)amino)-8,9-dihydroimidazo[1,2-a]pyrimido[5,4-e]pyrimidin-5(6H)-one]"
94,0.33,0.835,38,83,,"CN(C)CCCOc1ccc(Nc2ncc3c(n2)N2CCN=C2N(c2c(F)cccc2Cl)C3=O)cc1 [Example 106, 6-(2-Chloro-6-fluorophenyl)-2-((4-(3-(dimethylamino)propoxy)phenyl)amino)-8,9-dihydroimidazo[1,2-a]pyrimido[5,4-e]pyrimidin-5(6H)-one]"
95,0.36,0.794,,,,"CN1CCC(Oc2ccc(Nc3ncc4c(n3)N3CCN=C3N(c3c(F)cccc3Cl)C4=O)cc2)CC1 [Example 107, 6-(2-Chloro-6-fluorophenyl)-2-((4-((1-methylpiperidin-4-yl)oxy)phenyl)amino)-8,9-dihydroimidazo[1,2-a]pyrimido[5,4-e]pyrimidin-5(6H)-one]"
96,1.5,,,,0.899,"CN(C)CCNc1ccc(Nc2ncc3c(n2)N2CCN=C2N(c2c(F)cccc2Cl)C3=O)cc1 [Example 108, 6-(2-Chloro-6-fluorophenyl)-2-((4-((2-(dimethylamino)ethyl)amino)phenyl)amino)-8,9-dihydroimidazo[1,2-a]pyrimido[5,4-e]pyrimidin-5(6H)-one]"
96,1.15,0.884,,,,"CN(C)CCN(C)c1ccc(Nc2ncc3c(n2)N2CCN=C2N(c2c(F)cccc2Cl)C3=O)cc1 [Example 109, 6-(2-Chloro-6-fluorophenyl)-2-((4-((2-(dimethylamino)ethyl)(methyl)amino)phenyl)amino)-8,9-dihydroimidazo[1,2-a]pyrimido[5,4-e]pyrimidin-5(6H)-one]"
96,0.472,0.599,,,,"CN(C)CCCNc1ccc(Nc2ncc3c(n2)N2CCN=C2N(c2c(F)cccc2Cl)C3=O)cc1 [Example 110, 6-(2-Chloro-6-fluorophenyl)-2-((4-((3-(dimethylamino)propyl)amino)phenyl)amino)-8,9-dihydroimidazo[1,2-a]pyrimido[5,4-e]pyrimidin-5(6H)-one]"
96,0.835,0.913,,,,"CN(C)CCCN(C)c1ccc(Nc2ncc3c(n2)N2CCN=C2N(c2c(F)cccc2Cl)C3=O)cc1 [Example 111, 6-(2-Chloro-6-fluorophenyl)-2-((4-((3-(dimethylamino)propyl)(methyl)amino)phenyl)amino)-8,9-dihydroimidazo[1,2-a]pyrimido[5,4-e]pyrimidin-5(6H)-one]"
97,0.393,,,,0.481,"CN1CCC(Nc2ccc(Nc3ncc4c(n3)N3CCN=C3N(c3c(F)cccc3Cl)C4=O)cc2)CC1 [Example 112, 6-(2-Chloro-6-fluorophenyl)-2-((4-((1-methylpiperidin-4-yl)amino)phenyl)amino)-8,9-dihydroimidazo[1,2-a]pyrimido[5,4-e]pyrimidin-5(6H)-one]"

# Continued, molecule first:
SMILES,Inh. (%) of Wee1 kinase enzyme activity (Wee1 (h); C 1 μm compound) [%],IC50 (LoVo cells) [µM],IC50 (NCI-H1299 cells; NCI-H1299 cells) [µM],Inh. (%) of Wee1 kinase enzyme activity (Wee1 (h); C 0.01 μm compound) [%],Inh. (%) of Wee1 kinase enzyme activity (Wee1 (h); C 0.1 μm compound) [%],"IC50 (NCI-H1299 cells; NCI-H1299, NCI-H1299 cells) [µM]"
"CN1CCN(c2ccc(Nc3ncc4c(n3)N3CCN=C3N(c3cccc(Cl)c3Cl)C4=O)cc2)CC1 [Example 91, 6-(2,3-Dichlorophenyl)-2-((4-(4-methylpiperazin-1-yl)phenyl)amino)-8,9-dihydroimidazo[1,2-a]pyrimido[5,4-e]pyrimidin-5(6H)-one]",75,0.185,2.36,,,
"CN1CCN(c2ccc(Nc3ncc4c(n3)N3CCN=C3N(c3ncccn3)C4=O)cc2)CC1 [Example 92, 6-(Pyrimidin-2-yl)-2-((4-(4-methylpiperazin-1-yl)phenyl)amino)-8,9-dihydroimidazo[1,2-a]pyrimido[5,4-e]pyrimidin-5(6H)-one]",1,> 100,> 10,,,
"CN1CCN(c2ccc(Nc3ncc4c(n3)N3CCN=C3NC4=O)cc2)CC1 [Example 93, 2-((4-(4-Methylpiperazin-1-yl)phenyl)amino)-8,9-dihydroimidazo[1,2-a]pyrimido[5,4-e]pyrimidin-5(6H)-one]",0,> 100,> 10,,,
"CN1CCN(c2ccc(Nc3ncc4c(n3)N3CCN=C3N(C3CCC3)C4=O)cc2)CC1 [Example 94, 6-Cyclobutyl-2-((4-(4-methylpiperazin-1-yl)phenyl)amino)-8,9-dihydroimidazo[1,2-a]pyrimido[5,4-e]pyrimidin-5(6H)-one]",19,1.91,2.39,,,
"CN1CCN(c2ccc(Nc3ncc4c(n3)N3CCN=C3N(C3CCCC3)C4=O)cc2)CC1 [Example 95, 6-Cyclopentyl-2-((4-(4-methylpiperazin-1-yl)phenyl)amino)-8,9-dihydroimidazo[1,2-a]pyrimido[5,4-e]pyrimidin-5(6H)-one]",8,1.88,2.13,,,
"CN1CCN(c2ccc(Nc3ncc4c(n3)N3CCN=C3N(c3ccccc3)C4=O)cc2)CC1 [Example 96, 6-Phenyl-2-((4-(4-methylpiperazin-1-yl)phenyl)amino)-8,9-dihydroimidazo[1,2-a]pyrimido[5,4-e]pyrimidin-5(6H)-one]",29,> 100,> 10,,,
"CN1CCN(c2ccc(Nc3ncc4c(n3)N3CCN=C3N(c3ccccn3)C4=O)cc2)CC1 [Example 97, 6-(Pyridin-2-yl)-2-((4-(4-methylpiperazin-1-yl)phenyl)amino)-8,9-dihydroimidazo[1,2-a]pyrimido[5,4-e]pyrimidin-5(6H)-one]",9,> 100,> 10,,,
"CN1CCN(c2ccc(Nc3ncc4c(n3)N3CCN=C3N(c3cccnc3)C4=O)cc2)CC1 [Example 98, 6-(Pyridin-3-yl)-2-((4-(4-methylpiperazin-1-yl)phenyl)amino)-8,9-dihydroimidazo[1,2-a]pyrimido[5,4-e]pyrimidin-5(6H)-one]",2,> 100,> 10,,,
"CN1CCN(c2ccc(Nc3ncc4c(n3)N3CCN=C3N(c3ccncc3)C4=O)cc2)CC1 [Example 99, 6-(Pyridin-4-yl)-2-((4-(4-methylpiperazin-1-yl)phenyl)amino)-8,9-dihydroimidazo[1,2-a]pyrimido[5,4-e]pyrimidin-5(6H)-one]",8,> 100,> 10,,,
"CN1CCN(c2ccc(Nc3ncc4c(n3)N3CCN=C3N(c3c(F)cccc3F)C4=O)cc2Cl)CC1 [Example 100, 6-(2,6-Difluorophenyl)-2-((3-chloro-4-(4-methylpiperazin-1-yl)phenyl)amino)-8,9-dihydroimidazo[1,2-a]pyrimido[5,4-e]pyrimidin-5(6H)-one]",87,0.173,0.532,,,
"Cc1cc(Nc2ncc3c(n2)N2CCN=C2N(c2c(F)cccc2F)C3=O)cc(C)c1N1CCN(C)CC1 [Example 101, 6-(2,6-Difluorophenyl)-2-((3,5-dimethyl-4-(4-methylpiperazin-1-yl)phenyl)amino)-8,9-dihydroimidazo[1,2-a]pyrimido[5,4-e]pyrimidin-5(6H)-one]",95,0.0954,,22,70,0.214
